The values that follow come from ChEMBL document CHEMBL1201862, “PubChem BioAssay data set” (2004).

Calls of active or inactive are those of the source.

As a reminder, the EC50 is the concentration that produces a half-maximal response. Broadly, the AC50 is the concentration giving half of the maximal activity seen.

One assay addresses T1, Heat shock factor protein 1 (Mus musculus, UniProt P38532).
T1 sequence (P38532 whole entry): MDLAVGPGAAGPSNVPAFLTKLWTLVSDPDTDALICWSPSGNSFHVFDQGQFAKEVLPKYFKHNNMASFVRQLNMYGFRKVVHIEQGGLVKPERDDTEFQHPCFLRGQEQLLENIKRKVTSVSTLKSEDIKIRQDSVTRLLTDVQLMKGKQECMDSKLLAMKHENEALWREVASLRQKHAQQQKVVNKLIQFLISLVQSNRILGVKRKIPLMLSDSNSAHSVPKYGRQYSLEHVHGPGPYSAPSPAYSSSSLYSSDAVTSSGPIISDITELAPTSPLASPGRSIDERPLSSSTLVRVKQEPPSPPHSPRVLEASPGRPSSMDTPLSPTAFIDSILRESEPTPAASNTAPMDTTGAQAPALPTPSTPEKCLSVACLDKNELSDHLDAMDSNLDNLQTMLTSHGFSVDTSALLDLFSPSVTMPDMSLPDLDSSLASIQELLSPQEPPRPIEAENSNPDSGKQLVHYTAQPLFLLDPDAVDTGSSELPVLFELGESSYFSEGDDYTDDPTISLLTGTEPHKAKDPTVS
The assay is described as follows: inhibition of MG132-induced HSE-luciferase signal, confirmation, cell-based, NIH3T3, luminescence, dose retest (AID 2382).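 Also: NIH3T3 fibroblasts with HSF1-driven luciferase reporter stressed by proteasome inhibitor MG132; luminescence from HSF1-driven luciferase expression after 8 hours of MG132 stress.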
Details: not given
In kind it is functional.
Take `O=C(NCc1ccncc1)C(=O)Nc1nc(C23CC4CC(CC(C4)C2)C3)cs1`: the EC50 was > 195 µM (not active).

On to `CCCCn1cc(S(=O)(=O)c2ccccc2)c(=O)c2cc(C)ccc21`, for which the EC50 is > 195 µM (not active).

`OC(COc1c(F)cc(Br)cc1F)CN1CCN(c2ccc(F)cc2)CC1` (stereo unspecified): the EC50 is listed as > 195 µM (not active).

Turning to `CCN(CC)C(=S)SCC(=O)Nc1nc(=O)c2ccccc2s1`, the EC50 is reported as > 195 µM (not active).

Take `C/C(=N\NC(=O)c1nnn(-c2nonc2N)c1C(C)C)c1ccncc1`: the concentration giving a half-maximal response (EC50) is > 195 µM (not active).

Regarding `Cc1ccc(/C=N\NC(=O)Cc2noc3ccccc23)cc1`, the concentration giving a half-maximal response (EC50) is on record as > 195 µM (not active).

Turning to `CN(C)c1ccc(N=Nc2ccc(C(=O)O)cc2)cc1`, the EC50 was 1.68 µM (active).

In the case of `CCOC(=O)C1(C)NC(c2ccc(O)cc2)C2C(=O)N(c3ccccc3)C(=O)C21` (stereo unspecified), the concentration for a half-maximal effect (EC50) was 93.8 µM (active).

Tested on in the next assay: not listed separately
The assay is described as follows: microbe, parasite or virus in culture. The following applies: Mycobacterium tuberculosis. The format is functional.
On to `COc1ccccc1C(CNC(=O)C(C)(C)Oc1ccc(Cl)cc1)N1CCCC1` (stereo unspecified), for which the CC50 was > 40 µM (active).

Turning to `Cn1c(NCC(O)c2ccccc2)nc2c1c(=O)n(Cc1ccc(Cl)c(Cl)c1)c(=O)n2C` (stereo unspecified), the CC50 was 25.5 µM (active).

Consider `O=C(Nc1ccc(Oc2cccc(C(F)(F)F)c2)nc1)c1cccs1`, for which the CC50 is > 40 µM (active).

Regarding `COc1cccc(N/C([S-])=C(/C(=O)c2cc(C)n(-c3ccccc3F)c2C)[n+]2ccc(N(C)C)cc2)c1`, the CC50 was > 40 µM (active).

As for `COc1ccc(NC(C)C(=O)Nc2ccc(C(C)(C)C)cc2)cc1Cl` (stereo unspecified), the CC50 is > 40 µM (active).

As to `CSCCC1NC(=O)N(CC(=O)N2N=C(c3ccc(Cl)cc3)CC2c2ccco2)C1=O` (stereo unspecified), the CC50 is > 40 µM (active).

Take `CCOc1cc(-c2c(C#N)c(O)nc3c2c(C)nn3-c2ccc(F)cc2)ccc1O`: the CC50 was > 40 µM (active).

For the compound `CCC(=O)c1ccc(OCC(O)CN2CCN(c3cccc(C(F)(F)F)c3)CC2)cc1` (stereo unspecified), the CC50 is > 40 µM (active).

Tested on in the next assay: not listed separately
Nature of the assay: inhibitors of intracellular T. cruzi replication, confirmation, NIH3T3 host cells, beta-gal luminescence (AID 2044).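 Also: intracellular parasites grown in NIH/3T3 mouse fibroblasts as host cells; luminescent beta-galactosidase reporter signal from transgenic T. cruzi replicating inside host cells; inhibitors lower the luminescence signal.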 In kind it is functional, cell-based.
Details: not given
Regarding `COc1cccc(N/C([S-])=C(/C(=O)c2cc(C)n(-c3ccccc3F)c2C)[n+]2ccc(N(C)C)cc2)c1`, the concentration giving a half-maximal response (EC50) was 0.645 µM (active).

A further assay concerns the target T1, Heat shock factor protein 1. Nature of the assay: HSF1 potentiators in luciferase reporter cells, confirmation, cell-based, NIH3T3, luminescence, dose retest (AID 435004).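 Also: stress induced by proteasome inhibitor MG132 added 30 min after compound; luciferase reporter driven by HSF1 response element in NIH3T3 cells; actives raise luminescence as potentiators of the MG132 stress response.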 In kind it is functional.
Details: not given
(Reporter assays use an easily measured gene product as a stand-in for the process of interest.)
With `CCOC(=O)C(=O)/C(C#N)=C/Nc1ccccc1`, the EC50 was 168 µM (active).

On to `O=C(COC(=O)C1CC2C=CC1C2)Nc1ccc2c(c1)OC(F)(F)O2` (stereo unspecified), for which the EC50 is > 260 µM (inactive).

Turning to `Cc1cccc(N(C(=O)c2ccc(CN3CCOCC3)o2)C(C(=O)NC(C)(C)C)c2ccc(F)cc2)c1` (stereo unspecified), the EC50 was > 260 µM (inactive).

Take `CCOC(=O)C1=C(c2ccccc2)NC(SC)=C(C#N)C1c1ccco1` (stereo unspecified): the EC50 was > 260 µM (inactive).

Turning to `O[C@@H]1C2CCCC1[C@]1(O)CCCCC1C2` (stereo partly specified), the EC50 is > 260 µM (inactive).

For the compound `COC(=O)CCC(=O)C1=C(N)CC(C)(C)CC1=O`, the EC50 is > 260 µM (inactive).

On to `Cc1cc(C)c2cc(CN(Cc3ccco3)C(S)=NCC3CCCO3)c(O)nc2c1` (stereo unspecified), for which the EC50 was > 260 µM (inactive).

The target in another assay is FAD-linked sulfhydryl oxidase ALR (Homo sapiens, UniProt P55789). Nature of the assay: inhibitors of human ALR sulfhydryl oxidase, dose response, biochemical, H2O2 detection, luminescence, cherry-pick (AID 493248).
FAD-linked sulfhydryl oxidase ALR, sequence (P55789 whole entry): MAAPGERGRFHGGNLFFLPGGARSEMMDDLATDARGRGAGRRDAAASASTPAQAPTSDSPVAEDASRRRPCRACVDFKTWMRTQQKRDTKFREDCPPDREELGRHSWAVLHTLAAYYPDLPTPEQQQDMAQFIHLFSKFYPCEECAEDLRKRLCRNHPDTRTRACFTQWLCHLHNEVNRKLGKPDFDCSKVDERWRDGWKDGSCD
Details: not given
Regarding `COc1ccc(OC)c(NC(=O)CCN2CCN(c3ccccc3)CC2)c1`, the concentration at half-maximal activity (AC50) was 3.7 µM (active).

On to `Oc1[nH]c2ccccc2c1C1=NCCCC1`, for which the concentration at half-maximal activity (AC50) was 0.325 µM (active).

Take `CCC(=O)N(C)CCc1cc2c(c(OC)c1/C=N/Nc1ccc(C(=O)O)cc1)OCO2`: the AC50 was 3.56 µM (active).

Turning to `Cc1nn(Cc2ccc(Cl)cc2)c(C)c1N`, the AC50 was 28.5 µM (active).

`CN(c1ccccc1C(=O)N1CCN(c2ccccc2)CC1)S(C)(=O)=O`: the concentration at half-maximal activity (AC50) is 2.93 µM (active).

Consider `O=C(O)c1ccc(/N=c2\oc3cc(O)ccc3cc2C(=O)NCc2ccccc2)cc1`, for which the half-maximal activity concentration (AC50) was 1.71 µM (active).

Regarding `COc1cc(/C=N/NC(=O)c2ccc(CSc3nncn3C)cc2)cc(OC)c1O`, the AC50 is 2.25 µM (active).

`O=C(c1ccco1)N1CCN=C1SCc1cccc(Cl)c1`: the half-maximal activity concentration (AC50) was 18.1 µM (active).

Regarding `O=C(c1ccccc1)c1cccn1CC(=O)N1CCN(c2ccccc2)CC1`, the AC50 was 12.4 µM (active).

For `Cc1ccc(NC(=NO)c2nonc2N)cc1`, the AC50 is 19.3 µM (active).

Tested on in another assay: not listed separately
Nature of the assay: cytotoxicity toward NIH3T3 fibroblasts, dose response, counter-screen, cell-based, ATP luminescence, mouse fibroblasts (AID 2010).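 Also: cells exposed to compound for about 90 hours before reading.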 The format is functional.
Details: not given
(In general: Counterscreens check selectivity or assay interference.)
In the case of `COc1cccc(N/C([S-])=C(/C(=O)c2cc(C)n(-c3ccccc3F)c2C)[n+]2ccc(N(C)C)cc2)c1`, the half-maximal effective concentration (EC50) is > 60 µM (not active).

Tested on in the next assay: not listed separately
The assay is described as follows: Luminescence Cell-Based Dose Response HTS to Identify Inhibitors of 5'UTR Stem-Loop Driven Prion Protein mRNA Translation in H4 Neuroglioblastoma Cells. [Related pubchem assays: 1827 (Project Summary), 1813 (Primary HTS)]. In kind it is functional.
Details: not given
Take `CN(C)c1ccc(N=Nc2ccc(C(=O)O)cc2)cc1`: the concentration for a half-maximal effect (EC50) was 11.8 µM (active).
